According to the NIST ThermoML archive (doi:10.1021/je034062r):
± gives the expanded uncertainty stated by the source.

Experiment: xn = mol fraction of the nth substance listed
Conditions: for mass density: Liquid; for surface tension liquid-gas: Pendant drop shape

C1CCCCC1 [cyclohexane] + CCCCCCC
Conditions	mass density [kg/m3]	surface tension liquid-gas [mN/m]
283.15 K, x1 = 0.1022	699.2 ± 1	–
283.15 K, x1 = 0.2022	706.5 ± 1	–
283.15 K, x1 = 0.3078	714.6 ± 1	–
283.15 K, x1 = 0.401	722.3 ± 1.1	–
283.15 K, x1 = 0.4984	730.8 ± 0.8	–
283.15 K, x1 = 0.7003	750.8 ± 1.5	–
283.15 K, x1 = 0.8054	761.5 ± 1.3	–
283.15 K, x1 = 0.898	774.2 ± 1.5	–
283.15 K, x1 = 1	787.9 ± 0.5	–
287.81 K, x1 = 0.1022	–	20.91 ± 0.26
287.81 K, x1 = 0.2022	–	21.31 ± 0.26
287.81 K, x1 = 0.3078	–	21.65 ± 0.26
287.81 K, x1 = 0.401	–	21.88 ± 0.26
287.81 K, x1 = 0.4984	–	22.27 ± 0.27
287.81 K, x1 = 0.6002	–	22.62 ± 0.27
287.81 K, x1 = 0.7003	–	23.08 ± 0.27
287.81 K, x1 = 0.8054	–	23.84 ± 0.28
287.81 K, x1 = 0.898	–	24.39 ± 0.29
287.81 K, x1 = 1	–	25.34 ± 0.28
288.15 K, x1 = 0.1022	695 ± 1	–
288.15 K, x1 = 0.2022	702.2 ± 1	–
288.15 K, x1 = 0.3078	710.4 ± 1	–
288.15 K, x1 = 0.401	717.9 ± 1.1	–
288.15 K, x1 = 0.4984	726.5 ± 0.9	–
288.15 K, x1 = 0.7003	746.4 ± 1.4	–
288.15 K, x1 = 0.8054	758 ± 1.3	–
288.15 K, x1 = 0.898	769.7 ± 1.4	–
288.15 K, x1 = 1	783.2 ± 0.5	–
293.15 K, x1 = 0.1022	690.8 ± 1	–
293.15 K, x1 = 0.2022	698 ± 1	–
293.15 K, x1 = 0.3078	706.1 ± 1	–
293.15 K, x1 = 0.401	713.6 ± 1.1	–
293.15 K, x1 = 0.4984	722.2 ± 1	–
293.15 K, x1 = 0.7003	742 ± 1.3	–
293.15 K, x1 = 0.8054	753.5 ± 1.3	–
293.15 K, x1 = 0.898	765.1 ± 1.4	–
293.15 K, x1 = 1	778.6 ± 0.5	–
297.82 K, x1 = 0.1022	–	19.95 ± 0.25
297.82 K, x1 = 0.2022	–	20.25 ± 0.25
297.82 K, x1 = 0.3078	–	20.52 ± 0.26
297.82 K, x1 = 0.401	–	20.9 ± 0.26
297.82 K, x1 = 0.4984	–	21.21 ± 0.26
297.82 K, x1 = 0.6002	–	21.57 ± 0.26
297.82 K, x1 = 0.7003	–	22.14 ± 0.27
297.82 K, x1 = 0.8054	–	22.72 ± 0.27
297.82 K, x1 = 0.898	–	23.32 ± 0.28
297.82 K, x1 = 1	–	24.2 ± 0.27
298.15 K, x1 = 0.1022	686.5 ± 1	–
298.15 K, x1 = 0.2022	693.6 ± 1	–
298.15 K, x1 = 0.3078	701.7 ± 1	–
298.15 K, x1 = 0.401	709.2 ± 1.1	–
298.15 K, x1 = 0.4984	717.8 ± 1	–
298.15 K, x1 = 0.6002	725.6 ± 10	–
298.15 K, x1 = 0.7003	737.5 ± 1.3	–
298.15 K, x1 = 0.8054	749 ± 1.3	–
298.15 K, x1 = 0.898	760.5 ± 1.4	–
298.15 K, x1 = 1	773.9 ± 0.5	–
303.15 K, x1 = 0.1022	682.2 ± 1	–
303.15 K, x1 = 0.2022	689.3 ± 1	–
303.15 K, x1 = 0.3078	697.4 ± 1	–
303.15 K, x1 = 0.401	704.8 ± 1.1	–
303.15 K, x1 = 0.4984	713.3 ± 1.1	–
303.15 K, x1 = 0.6002	722 ± 10	–
303.15 K, x1 = 0.7003	733 ± 1.2	–
303.15 K, x1 = 0.8054	744.4 ± 1.3	–
303.15 K, x1 = 0.898	755.8 ± 1.4	–
303.15 K, x1 = 1	769.2 ± 0.5	–
307.86 K, x1 = 0.1022	–	18.91 ± 0.25
307.86 K, x1 = 0.2022	–	19.25 ± 0.25
307.86 K, x1 = 0.3078	–	19.58 ± 0.25
307.86 K, x1 = 0.401	–	19.87 ± 0.25
307.86 K, x1 = 0.4984	–	20.19 ± 0.25
307.86 K, x1 = 0.6002	–	20.53 ± 0.25
307.86 K, x1 = 0.7003	–	21.06 ± 0.26
307.86 K, x1 = 0.8054	–	21.64 ± 0.26
307.86 K, x1 = 0.898	–	22.18 ± 0.27
307.86 K, x1 = 1	–	23.02 ± 0.26
308.15 K, x1 = 0.1022	677.8 ± 1	–
308.15 K, x1 = 0.2022	685 ± 1	–
308.15 K, x1 = 0.3078	693 ± 1	–
308.15 K, x1 = 0.401	700.4 ± 1.1	–
308.15 K, x1 = 0.4984	708.9 ± 1.1	–
308.15 K, x1 = 0.6002	718.1 ± 10	–
308.15 K, x1 = 0.7003	728.4 ± 1.2	–
308.15 K, x1 = 0.8054	739.8 ± 1.3	–
308.15 K, x1 = 0.898	751.2 ± 1.4	–
308.15 K, x1 = 1	764.4 ± 0.5	–
313.15 K, x1 = 0.1022	673.5 ± 1	–
313.15 K, x1 = 0.2022	680.6 ± 1	–
313.15 K, x1 = 0.3078	688.6 ± 1	–
313.15 K, x1 = 0.401	696 ± 1.1	–
313.15 K, x1 = 0.4984	704.4 ± 1.1	–
313.15 K, x1 = 0.6002	713.8 ± 10	–
313.15 K, x1 = 0.7003	723.9 ± 1.2	–
313.15 K, x1 = 0.8054	735.2 ± 1.3	–
313.15 K, x1 = 0.898	746.5 ± 1.4	–
313.15 K, x1 = 1	759.6 ± 0.5	–
317.86 K, x1 = 0.1022	–	17.91 ± 0.24
317.86 K, x1 = 0.2022	–	18.36 ± 0.24
317.86 K, x1 = 0.3078	–	18.53 ± 0.24
317.86 K, x1 = 0.401	–	18.82 ± 0.24
317.86 K, x1 = 0.4984	–	19.16 ± 0.24
317.86 K, x1 = 0.6002	–	19.55 ± 0.25
317.86 K, x1 = 0.7003	–	20.01 ± 0.25
317.86 K, x1 = 0.8054	–	20.56 ± 0.25
317.86 K, x1 = 0.898	–	21.07 ± 0.26
317.86 K, x1 = 1	–	21.84 ± 0.25
318.15 K, x1 = 0.1022	669 ± 1	–
318.15 K, x1 = 0.2022	676.1 ± 1	–
318.15 K, x1 = 0.3078	684.1 ± 1	–
318.15 K, x1 = 0.401	691.5 ± 1.1	–
318.15 K, x1 = 0.4984	699.9 ± 1.1	–
318.15 K, x1 = 0.6002	709.3 ± 10	–
318.15 K, x1 = 0.7003	719.3 ± 1.2	–
318.15 K, x1 = 0.8054	730.6 ± 1.3	–
318.15 K, x1 = 0.898	741.8 ± 1.4	–
318.15 K, x1 = 1	754.8 ± 0.5	–
323.15 K, x1 = 0.1022	664.6 ± 1	–
323.15 K, x1 = 0.2022	671.7 ± 1	–
323.15 K, x1 = 0.3078	679.6 ± 1	–
323.15 K, x1 = 0.401	686.9 ± 1.1	–
323.15 K, x1 = 0.4984	695.4 ± 1.1	–
323.15 K, x1 = 0.6002	704.7 ± 10	–
323.15 K, x1 = 0.7003	714.7 ± 1.2	–
323.15 K, x1 = 0.8054	725.9 ± 1.3	–
323.15 K, x1 = 0.898	737.1 ± 1.4	–
323.15 K, x1 = 1	750 ± 0.5	–
327.88 K, x1 = 0.1022	–	16.83 ± 0.23
327.88 K, x1 = 0.2022	–	17.05 ± 0.23
327.88 K, x1 = 0.3078	–	17.41 ± 0.23
327.88 K, x1 = 0.401	–	17.52 ± 0.23
327.88 K, x1 = 0.4984	–	17.99 ± 0.24
327.88 K, x1 = 0.6002	–	18.44 ± 0.24
327.88 K, x1 = 0.7003	–	18.95 ± 0.24
327.88 K, x1 = 0.8054	–	19.48 ± 0.24
327.88 K, x1 = 0.898	–	19.98 ± 0.25
327.88 K, x1 = 1	–	20.71 ± 0.24
328.15 K, x1 = 0.1022	660.1 ± 1	–
328.15 K, x1 = 0.2022	667.2 ± 1	–
328.15 K, x1 = 0.3078	675.1 ± 1	–
328.15 K, x1 = 0.401	682.4 ± 1.1	–
328.15 K, x1 = 0.4984	691 ± 1.1	–
328.15 K, x1 = 0.6002	700.1 ± 10	–
328.15 K, x1 = 0.7003	710 ± 1.2	–
328.15 K, x1 = 0.8054	721.2 ± 1.3	–
328.15 K, x1 = 0.898	732.3 ± 1.4	–
328.15 K, x1 = 1	745.2 ± 0.6	–
333.15 K, x1 = 0.1022	655.5 ± 1	–
333.15 K, x1 = 0.3078	670.5 ± 1	–
333.15 K, x1 = 0.401	677.8 ± 1.1	–
333.15 K, x1 = 0.4984	686.2 ± 1.1	–
333.15 K, x1 = 0.6002	695.5 ± 10	–
333.15 K, x1 = 0.7003	705.3 ± 1.2	–
333.15 K, x1 = 0.8054	716.5 ± 1.3	–
333.15 K, x1 = 0.898	727.5 ± 1.4	–
333.15 K, x1 = 1	740.3 ± 0.6	–
